Measurements from PubChem BioAssay (NCI).
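Interpolation was linear, between the two tested concentrations surrounding the appropriate level; five concentrations were tested over 48 hours in 96-well plates. Here, GI50 denotes the concentration required for 50% inhibition of growth. TGI marks complete inhibition of growth.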

Legend:
Experiment in all cases: inhibition of tumour cell growth, NCI panel, 48 h
[1] = tested on: SF-268 CNS
[2] = tested on: MDA-MB-435
[3] = tested on: NCI-H460 lung
[4] = tested on: A549 NSCLC
[5] = tested on: SNB-19 CNS
[6] = tested on: LOX IMVI melanoma
[7] = tested on: ACHN renal
[8] = tested on: SK-MEL-28 melanoma
[9] = tested on: MOLT-4 leukemia
[10] = tested on: OVCAR-3 ovarian
[11] = tested on: HCC-2998 colon
[12] = tested on: COLO 205 colon
[13] = tested on: UACC-62 melanoma
[14] = tested on: TK-10 renal
[15] = tested on: A498 renal
[16] = tested on: SF-295 CNS
[17] = tested on: SF-539 CNS
[18] = tested on: SK-MEL-5 melanoma
[19] = tested on: IGROV1 ovarian
[20] = tested on: T-47D breast
[21] = tested on: SW-620 colon
[22] = tested on: SK-OV-3 ovarian
[23] = tested on: HCT-15 colon
[24] = tested on: 786-0 renal
[25] = tested on: SK-MEL-2 melanoma
[26] = tested on: EKVX NSCLC
[27] = tested on: NCI-H23 lung
[28] = tested on: U251 CNS
[29] = tested on: CCRF-CEM leukemia
[30] = tested on: HL-60(TB) leukemia
[31] = tested on: MCF7 breast
[32] = tested on: KM12 colon
[33] = tested on: NCI/ADR-RES ovarian
[34] = tested on: PC-3 prostate
[35] = tested on: UACC-257 melanoma
[36] = tested on: SN12C renal
[37] = tested on: BT-549 breast
[38] = tested on: RPMI-8226 leukemia
[39] = tested on: M14 melanoma
[40] = tested on: OVCAR-4 ovarian
[41] = tested on: HT29 colon
[42] = tested on: OVCAR-5 ovarian
[43] = tested on: HS 578T breast
[44] = tested on: SNB-75 CNS
[45] = tested on: NCI-H522 lung
[46] = tested on: OVCAR-8 ovarian
[47] = tested on: RXF 393 renal
[48] = tested on: CAKI-1 renal
[49] = tested on: K-562 leukemia
[50] = tested on: DU-145 prostate
[51] = tested on: HOP-62 NSCLC
[52] = tested on: MDA-MB-231 breast
[53] = tested on: UO-31 renal
[54] = tested on: HOP-92 NSCLC
[55] = tested on: MALME-3M melanoma
[56] = tested on: NCI-H226 lung
[57] = tested on: HCT-116 colon

For `C/C=C(\C)C(=O)NC1=CC[C@@]2(C)C(=CCC3C2CC[C@@]2(C)C3CC[C@@H]2C(C)N(C)C)C1=O` (some centres undefined), the GI50 [1] was 2.14 µM, the TGI [1] was 6.93 µM and the GI50 [2] was 2.35 µM. For the same molecule, the TGI [2] was 7.08 µM, the GI50 [3] was 2.06 µM and the TGI [3] was 4.98 µM. It also gave a GI50 [4] of 4.99 µM, a TGI [4] of 23.4 µM and a GI50 [5] of 15.9 µM. The TGI [5] was over 64.1 µM, the GI50 [6] was 1.63 µM and the TGI [6] was 3.58 µM. For the same molecule, the GI50 [7] was 8.03 µM, the TGI [7] was over 47 µM and the GI50 [8] was 1.72 µM. The TGI [8] was 3.24 µM, the GI50 [9] was 0.843 µM and the TGI [9] was 6.43 µM. The GI50 [10] was 2.5 µM, the TGI [10] was 12.8 µM and the GI50 [11] was 4.01 µM. For the same molecule, the TGI [11] was 15.6 µM, the GI50 [12] was 1.72 µM and the TGI [12] was 3.45 µM. For the same molecule, the GI50 [13] was 1.82 µM, the TGI [13] was 3.85 µM and the GI50 [14] was 12.3 µM. It also gave a TGI [14] of 32.4 µM, a GI50 [15] of 2.03 µM and a TGI [15] of 18.2 µM. For the same molecule, the GI50 [16] was 2.32 µM, the TGI [16] was 7.33 µM and the GI50 [17] was 1.62 µM. For the same molecule, the TGI [17] was 3.22 µM, the GI50 [18] was 1.39 µM and the TGI [18] was 2.95 µM. For the same molecule, the GI50 [19] was 5.17 µM, the TGI [19] was 21 µM and the GI50 [20] was 1.94 µM. For the same molecule, the TGI [20] was 25.7 µM, the GI50 [21] was 2.02 µM and the TGI [21] was 4.91 µM. The GI50 [22] was 11.6 µM, the TGI [22] was 29.8 µM and the GI50 [23] was 1.54 µM. The TGI [23] was 4.65 µM, the GI50 [24] was 2.54 µM and the TGI [24] was 7.45 µM. It also gave a GI50 [25] of 7.52 µM, a TGI [25] of 22.9 µM and a GI50 [26] of 3.17 µM. It also gave a TGI [26] of 51.8 µM, a GI50 [27] of 3.95 µM and a TGI [27] of 25.1 µM. The GI50 [28] was 4.34 µM, the TGI [28] was 23.3 µM and the GI50 [29] was 2.58 µM. The TGI [29] was 15.3 µM, the GI50 [30] was 1.42 µM and the TGI [30] was 5.2 µM. For the same molecule, the GI50 [31] was 2.79 µM, the TGI [31] was 14.2 µM and the GI50 [32] was 2.85 µM. For the same molecule, the TGI [32] was 13.7 µM, the GI50 [33] was 6.44 µM and the TGI [33] was 42.5 µM. It also gave a GI50 [34] of 2.5 µM, a TGI [34] of 17.7 µM and a GI50 [35] of 2.88 µM. It also gave a TGI [35] of 9.36 µM, a GI50 [36] of 4.47 µM and a TGI [36] of 22.3 µM. It also gave a GI50 [37] of 3.39 µM, a TGI [37] of 15.8 µM and a GI50 [38] of 1.91 µM. It also gave a TGI [38] of 9.38 µM, a GI50 [39] of 1.81 µM and a TGI [39] of 3.44 µM. It also gave a GI50 [40] of 4.58 µM, a TGI [40] of over 50.2 µM and a GI50 [41] of 0.57 µM. The TGI [41] was 2.6 µM, the GI50 [42] was 4.78 µM and the TGI [42] was 25.4 µM. For the same molecule, the GI50 [43] was 4.65 µM, the TGI [43] was 23.2 µM and the GI50 [44] was 5.22 µM. It also gave a TGI [44] of 28.4 µM, a GI50 [45] of 7.79 µM and a TGI [45] of 24 µM. It also gave a GI50 [46] of 10.1 µM, a TGI [46] of over 77.9 µM and a GI50 [47] of 1.56 µM. For the same molecule, the TGI [47] was 4.53 µM, the GI50 [48] was 2.86 µM and the TGI [48] was 11.4 µM. For the same molecule, the GI50 [49] was 0.451 µM, the TGI [49] was 2.86 µM and the GI50 [50] was 7.06 µM. The TGI [50] was over 59.5 µM, the GI50 [51] was 2.08 µM and the TGI [51] was 5.51 µM. The GI50 [52] was 3.14 µM, the TGI [52] was 9.99 µM and the GI50 [53] was 1.44 µM. It also gave a TGI [53] of 3.02 µM, a GI50 [54] of 1.66 µM and a TGI [54] of 14.8 µM. For the same molecule, the GI50 [55] was 2.1 µM, the TGI [55] was 5.34 µM and the GI50 [56] was 4.65 µM. For the same molecule, the TGI [56] was 36.3 µM, the GI50 [57] was 1.41 µM and the TGI [57] was 3.1 µM.

For `C=C1C(=O)O[C@H]2[C@H]1CC/C(COC(=O)CSCSCC(=O)OC/C1=C/CC[C@@]3(C)O[C@H]3[C@H]3OC(=O)C(=C)[C@@H]3CC1)=C\CC[C@@]1(C)O[C@@H]21`, the GI50 [1] was 1.79 µM, the TGI [1] was 4.31 µM and the GI50 [2] was 2 µM. It also gave a TGI [2] of 4.56 µM, a GI50 [3] of 2.1 µM and a TGI [3] of 4.86 µM. For the same molecule, the GI50 [4] was 2.44 µM, the TGI [4] was 6.23 µM and the GI50 [5] was 2.44 µM. It also gave a TGI [5] of 5.99 µM, a GI50 [6] of 1.3 µM and a TGI [6] of 2.65 µM. The GI50 [7] was 1.33 µM, the TGI [7] was 2.6 µM and the GI50 [8] was 1.63 µM. The TGI [8] was 3.19 µM, the GI50 [9] was 0.505 µM and the TGI [9] was 3.09 µM. The GI50 [10] was 1.2 µM, the TGI [10] was 2.54 µM and the GI50 [11] was 1.8 µM. For the same molecule, the TGI [11] was 3.46 µM, the GI50 [12] was 1.34 µM and the TGI [12] was 3.06 µM. For the same molecule, the GI50 [13] was 1.88 µM, the TGI [13] was 4.03 µM and the GI50 [14] was 1.92 µM. It also gave a TGI [14] of 3.67 µM, a GI50 [15] of 3.83 µM and a TGI [15] of 14.8 µM. The GI50 [16] was 1.85 µM, the TGI [16] was 4.46 µM and the GI50 [17] was 1.47 µM. The TGI [17] was 2.89 µM, the GI50 [18] was 1.95 µM and the TGI [18] was 4.33 µM. The GI50 [19] was 1.78 µM, the TGI [19] was 4.46 µM and the GI50 [20] was 1.53 µM. The TGI [20] was 3.7 µM, the GI50 [21] was 1.41 µM and the TGI [21] was 3.26 µM. It also gave a GI50 [22] of 5.1 µM, a TGI [22] of 16.5 µM and a GI50 [23] of 1.33 µM. The TGI [23] was 2.83 µM, the GI50 [24] was 1.41 µM and the TGI [24] was 2.89 µM. It also gave a GI50 [25] of 2.29 µM, a TGI [25] of 5.24 µM and a GI50 [26] of 1.6 µM. It also gave a TGI [26] of 3.38 µM, a GI50 [27] of 1.83 µM and a TGI [27] of 4.01 µM. For the same molecule, the GI50 [28] was 1.7 µM, the TGI [28] was 3.85 µM and the GI50 [29] was 0.304 µM. It also gave a TGI [29] of 1.47 µM, a GI50 [31] of 0.642 µM and a TGI [31] of 2.25 µM. For the same molecule, the GI50 [32] was 1.93 µM, the TGI [32] was 3.77 µM and the GI50 [33] was 3.25 µM. The TGI [33] was 12.3 µM, the GI50 [34] was 1.86 µM and the TGI [34] was 4.14 µM. The GI50 [35] was 1.89 µM, the TGI [35] was 4.67 µM and the GI50 [36] was 1.65 µM. It also gave a TGI [36] of 3.85 µM, a GI50 [37] of 1.47 µM and a TGI [37] of 2.91 µM. The GI50 [38] was 0.597 µM, the TGI [38] was 3.71 µM and the GI50 [39] was 1.55 µM. For the same molecule, the TGI [39] was 3.22 µM, the GI50 [40] was 2.68 µM and the TGI [40] was 8.74 µM. The GI50 [41] was 1.37 µM, the TGI [41] was 2.82 µM and the GI50 [42] was 1.95 µM. It also gave a TGI [42] of 3.92 µM, a GI50 [43] of 4.88 µM and a TGI [43] of 64.2 µM. For the same molecule, the GI50 [45] was 1.48 µM, the TGI [45] was 3.2 µM and the GI50 [46] was 1.93 µM. It also gave a TGI [46] of 4.96 µM, a GI50 [47] of 1.23 µM and a TGI [47] of 2.83 µM. The GI50 [48] was 1.74 µM, the TGI [48] was 3.32 µM and the GI50 [49] was 0.554 µM. For the same molecule, the TGI [49] was over 100 µM, the GI50 [50] was 1.66 µM and the TGI [50] was 3.19 µM. The GI50 [51] was 2.59 µM, the TGI [51] was 8.38 µM and the GI50 [52] was 1.39 µM. The TGI [52] was 3 µM, the GI50 [53] was 1.27 µM and the TGI [53] was 2.56 µM. For the same molecule, the GI50 [54] was 1.39 µM, the TGI [54] was 2.85 µM and the GI50 [55] was 1.58 µM. It also gave a TGI [55] of 3.29 µM, a GI50 [56] of 3.51 µM and a TGI [56] of 13.9 µM. The GI50 [57] was 0.59 µM and the TGI [57] was 1.93 µM.
